Measured values taken from patent US20260365677A1, “NEW CONTRAST AGENTS FOR USE IN DIAGNOSTIC IMAGING” (Bayer Aktiengesellschaft, priority 2022, published 2026).

Assays:
[1] = biological target: T1, OATP1B3 (Homo sapiens, UniProt Q9NPD5); test: Uptake into stable transfected OATP1B3 HEK 293 cells; assay type: cell-based; conditions: 100 μM, 40 min, relative to RC1 (Gd-EOB-DTPA)
T1 construct: expressed in transfected cells
T1 sequence (Q9NPD5 1-702): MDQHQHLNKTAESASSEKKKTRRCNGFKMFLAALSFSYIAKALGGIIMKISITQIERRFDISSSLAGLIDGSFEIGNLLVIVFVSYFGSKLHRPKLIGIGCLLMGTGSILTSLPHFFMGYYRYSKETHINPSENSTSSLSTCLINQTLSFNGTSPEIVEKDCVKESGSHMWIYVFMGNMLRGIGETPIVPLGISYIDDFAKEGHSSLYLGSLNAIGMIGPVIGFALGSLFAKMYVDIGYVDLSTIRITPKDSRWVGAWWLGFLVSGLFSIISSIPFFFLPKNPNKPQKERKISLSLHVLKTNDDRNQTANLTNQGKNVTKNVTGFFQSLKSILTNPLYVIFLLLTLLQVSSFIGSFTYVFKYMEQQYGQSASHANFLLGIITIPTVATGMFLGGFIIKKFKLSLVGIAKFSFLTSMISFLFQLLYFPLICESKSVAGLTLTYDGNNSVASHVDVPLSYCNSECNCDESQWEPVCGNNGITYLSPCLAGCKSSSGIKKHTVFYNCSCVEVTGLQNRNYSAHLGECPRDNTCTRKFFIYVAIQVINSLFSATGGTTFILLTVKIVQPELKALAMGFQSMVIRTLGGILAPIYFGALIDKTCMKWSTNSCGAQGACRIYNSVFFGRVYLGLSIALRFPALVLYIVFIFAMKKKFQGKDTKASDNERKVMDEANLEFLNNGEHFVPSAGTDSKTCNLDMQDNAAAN
Procedure: Human transfected OATP1B3 human embryonic kidney 293 cells (OATP1B3 HEK 293, SLCO1B3, Entrez Gene ID: 28234) were used (Leonhardt M et al. Drug Metab Dispos. 2010 July; 38(7):1024-8). The following culture medium was used: 500 mL DMEM (Dulbecco's Modified Eagle Medium—high Glucose, D6429), 50 mL FCS (fetal bovine serum, Fa. Sigma, F7524), 5.8 mL G418 (Geneticin, Fa. Gibco 10131-027) and 5 mL Pen-Strep. (Penicillin-Streptomycin, Fa. Gibco, Ref 15140-122). Cryopreserved cells were shortly thawed in water bath and diluted in 10 mL warm culture medium (37 °C). After medium change the cells were grown for 3d in a 25 cm^2 cell culture flask. After 3 to 5d the cells were transferred into 75 cm^2 flasks. For the splitting of cells these were incubated with 1.5 mL trypsin (Trypsin-EDTA (1×) 0.05%, Ref 25300-054 100 ml, Fa. Gibco) for 3-5 min in the incubator (37 °C, 5% CO2 and 95% oxygen). After centrifugation and washing with medium the cells were counted (50 μL cell suspension and 50 μL trypan blue (Trypan Blue Solution, 93595-50 ml, Fa. Fluka). Cells were cultured (1×10^5 cells/well) in poly-D-lysine coated 24-well plates (Fa. Corning, Ref: 354414) in 1.5 mL medium per well. After 48 hours in the incubator the medium was changed and 1.5 mL/well sodium butyrate containing medium were added (40 mL culture medium plus 400 μL Na-Butyrate, Fa. Sigma Aldrich B5887-5G, 250 mg in 2.27 mL MilliQ water). After 24 hours in the incubator the medium was vacuumed off and 1.5 mL transport buffer was added and incubated for 10 min. The transport buffer contains the following ingredients: 500 mL HBSS (Hank's balanced salt solution, Hyclone, SH30268.01), 5 mL HEPES buffer (4-(2-hydroxyethyl)-1-piperazine-ethanesulfonic acid, Gibco 15630-056) and 3.9 mL glucose (Sigma, G8270-100, 90 g/200 mL MilliQ water). All test items were prepared in transport buffer at a final concentration of 100 μM from stock solutions (180 to 500 mM concentration). The OATP1B3 HEK 293 cells were incubated with test solutions (test item in transport buffer 500 μL) for 40 min on a thermoshaker without shaking (PHMP, Fa. Grant Bio). Triplicates were performed for each test item. After incubation the cells were washed with 2 mL of cold PBS (+) buffer (Dulbeccos PBS+, Fa. Gibco). […] As a reference standard Gd-EOB-DTPA (gadoxetate) is used in the same well plate. The OATP1B3 HEK 293 uptake of the test compound is calculated relative to gadoxetate (resulting in the unit % of RC1).

[2] = Relaxivity measurements at 1.41 T in water and human plasma; assay type: physicochemical; conditions: 37 °C, normalized to Gd
Procedure: Relaxivity measurements at 1.41 T were performed using a MiniSpec mq60 spectrometer (Bruker Analytik, Karlsruhe, Germany) operating at a resonance frequency of 60 MHz and a temperature of 37 °C. The T1 relaxation times were determined using the standard inversion recovery (IR) method with a fixed relaxation delay of at least 5×T1. The variable inversion time (TI) was calculated automatically by the standard software of the MiniSpec mq60 (8 steps). The T2 measurements were performed by using a Carr-Purcell-Meiboom-Gill (CPMG) pulse sequence, applying a relaxation delay of at least 5×T1.
Each relaxivity measurement was performed using three different Gd concentrations (3 concentrations between 0.05 and 2 mM). The T1 and T2 relaxation times of the example compounds 1 to 10 were measured in different media for example in water and human plasma. Human plasma preparation: For each experiment fresh blood was taken from a volunteer using 10 mL citrate-tubes (Sarstedt S-Monovette 02.1067.001, 10 mL, Citrate). The 10 mL citrate-tubes were carefully inverted 10 times to mix blood and anticoagulant and centrifuged for 15 min at 1811 g at RT (Eppendorf, Centrifuge 5810R).
The relaxivities ri (where i=1, 2) were calculated based on the measured relaxation rates R, in water and plasma:
where Ri(0) represent the relaxation rate of the respective solvent and CGd the concentration of the compound normalized to the Gadolinium. The Gadolinium concentrations of the investigated solutions were verified by Inductively Coupled Plasma Mass Spectrometry (ICP-MS Agilent 7500a, Waldbronn, Germany).

[3] = tested on: freshly isolated rat hepatocytes; test: Uptake into freshly isolated rat hepatocytes; assay type: cell-based; conditions: 100 μmol Gd/L, 10 min, 37 °C, relative to RC1 (Gd-EOB-DTPA)
Procedure: Triplicates were performed for each test item.

[4] = Partition coefficient (log P butanol/buffer); assay type: physicochemical; conditions: 50 mM Tris-HCl, pH 7.4, 10 μM, room temperature
Procedure: The partition coefficient P (log P=log(Cbutanol/Cbuffer)) was determined in buffered aqueous solution (10 μM of compound in 0.5 mL 50 mM Tris-HCl saturated with Butanol, pH 7.4) and 1-butanol 1+1 and the mixture was shaken for 2 h at room temperature (n=3). The Gd-concentrations in each phase. CObutano, and Cbuffer were measured by ICP-MS (The Chemistry of Contrast Agents in Medical Magnetic Resonance Imaging” 2nd Ed. Merbach A S, Helm L, Toth E, eds. Hoboken, NJ: Wiley 2013).

For `CCOc1ccc(C[C@H]2CN(CC(=O)[O-])CCN(CC(=O)[O-])CCN(CC(=O)O)CCN2CC(=O)[O-])cc1.[Gd+3]` (single isomer, unassigned; stereoisomer 2) [Example 11], the “Uptake into OATP1B3-HEK 293 cells” value [1] was 32 % of RC1, the r1 human plasma [2] was 6.2 L/mmol/s and the r1 water [2] was 4.4 L/mmol/s. For the same compound, the Uptake rat hepatocytes [3] was 49 % of RC1 and the “Log P” value [4] was −1.37.

In the case of `COCCOCCOCCOc1ccc(C[C@@H]2CN(CC(=O)[O-])CCN(CC(=O)[O-])CCN(CC(=O)O)CCN2CC(=O)[O-])cc1.[Gd+3]` [Example 3, Gadolinium-2,2′,2″-[(2R)-10-(carboxymethyl)-2-(4-{2-[2-(2-methoxyethoxy)ethoxy]ethoxy}benzyl)-1,4,7,10-tetraazacyclododecane-1,4,7-triyl]triacetate], the “Uptake into OATP1B3-HEK 293 cells” value [1] is reported as 28 % of RC1, the r1 human plasma [2] is reported as 6.8 L/mmol/s and the r1 water [2] is reported as 5.0 L/mmol/s. The Uptake rat hepatocytes [3] was 49 % of RC1 and the “Log P” value [4] was −2.05.

With `CCOc1ccc(CC2CN(CC(=O)[O-])CCN(CC(=O)[O-])CCN(CC(=O)O)CCN2CC(=O)[O-])cc1.[Gd+3]` (stereo not drawn) [Example 7, Gadolinium-2,2′,2″-[10-(carboxymethyl)-2-(4-ethoxybenzyl)-1,4,7,10-tetraazacyclododecane-1,4,7-triyl]triacetate] the “Uptake into OATP1B3-HEK 293 cells” value [1] was 36 % of RC1, the r1 human plasma [2] was 6.2 L/mmol/s and the r1 water [2] was 4.5 L/mmol/s. For the same compound, the Uptake rat hepatocytes [3] was 73 % of RC1 and the “Log P” value [4] was −1.32.

In the case of `CCCCOc1ccc(C[C@H]2CN(CC(=O)[O-])CCN(CC(=O)[O-])CCN(CC(=O)O)CCN2CC(=O)[O-])cc1.[Gd+3]` (single isomer, unassigned; stereoisomer 1) [Example 12], the “Uptake into OATP1B3-HEK 293 cells” value [1] is reported as 66 % of RC1, the r1 human plasma [2] is reported as 8.8 L/mmol/s and the r1 water [2] is reported as 4.7 L/mmol/s. For the same compound, the Uptake rat hepatocytes [3] was 110 % of RC1 and the “Log P” value [4] was −0.45.

In the case of `CCOc1ccc(CC2CN(CC(=O)[O-])CCN(CC(=O)[O-])CCN(CC(=O)O)CCN2CC(=O)[O-])cc1.[Gd+3]` (single isomer, unassigned; diastereomer 1) [Example 8, Gadolinium-2,2′,2″-[10-(carboxymethyl)-2-(4-ethoxybenzyl)-1,4,7,10-tetraazacyclododecane-1,4,7-triyl]triacetate (racemic diastereomer 1)], the “Uptake into OATP1B3-HEK 293 cells” value [1] is reported as 94 % of RC1, the r1 human plasma [2] is reported as 6.5 L/mmol/s and the r1 water [2] is reported as 4.7 L/mmol/s. For the same compound, the Uptake rat hepatocytes [3] was 143 % of RC1 and the “Log P” value [4] was −1.33.

In the case of `CCOc1ccc(C[C@H]2CN(CC(=O)[O-])CCN(CC(=O)[O-])CCN(CC(=O)O)CCN2CC(=O)[O-])cc1.[Gd+3]` (single isomer, unassigned; stereoisomer 1) [Example 10], the “Uptake into OATP1B3-HEK 293 cells” value [1] is reported as 80 % of RC1, the r1 human plasma [2] is reported as 6.4 L/mmol/s and the r1 water [2] is reported as 4.8 L/mmol/s. The Uptake rat hepatocytes [3] was 104 % of RC1 and the “Log P” value [4] was −1.34.
